Laboratory results reported in patent US10556879B2, “Retinoid compound, preparation method therefor, intermediates thereof and application thereof” (SHANGHAI INSTITUTE OF ORGANIC CHEMISTRY, CHINESE ACADEMY OF …, priority 2016, dated 2020).
Values joined by “and” are separate entries in the source; they are usually repeats but may differ in a detail not shown here. Equal values may be shown once. “Also recorded” adds a separate entry of the source. Read-outs that look alike come from different tables or passages of the source.

What was measured:
[1] = system: tumor-repopulating cells of B16-F1 melanoma; assay: Inhibitory activity on proliferation of tumor-repopulating cells (TRCs) of B16-F1 melanoma in 3D fibrin gel; assay type: cell-based; conditions: for IC50: colony tumor volume, read-out: IC50 of inhibition on TRCs of B16-F1 melanoma/μM
Protocol: B16-F1 Melanoma cells were incubated with 3D fibrin gel medium (90-Pa) for 5 days, and the desired tumor-repopulating cells of melanoma were screened (Nat. Mater. 2012, 11, 734). Subsequently, the culture medium was respectively treated with collagenase and neutral protease II, and the tumor-repopulating cells of B16-F1 melanoma were released, then the obtained repopulating cells were transferred to a freshly prepared medium to be resuspended and maintained at single-cell state. The tumor-repopulating cells of B16-F1 melanoma were inoculated in 3D fibrin gel medium (90-Pa) for 5 days, with 0.1% DMSO as the negative control group, Tazarotene and Bexarotene as the positive control drugs respectively, […] for 5 days. The colony tumor size was measured and calculated, and the inhibition rate of each drug on the tumor-repopulating cells of B16-F1 melanoma was calculated. The results of inhibitory activity of the compound of the present invention on the proliferation of tumor-repopulating cells of B16-F1 melanoma were shown in Table 2 below.

[2] = system: tumor-repopulating cells of A2780 ovarian cancer; assay: Inhibition of proliferation of tumor-repopulating cells, colony tumor volume in 3D fibrin gel; assay type: cell-based, human; conditions: A2780 TRCs; for volume of colony tumor relative to None group: 10 μM
Protocol: (§1) Therefore, we further studied the inhibitory activity of this compound against tumor-repopulating cells of six other kinds of human tumor, including A549 lung cancer cell, MCF-7 breast cancer cell, MDA-MB-435S melanoma cell, A2780 ovarian cancer cell, Hs-746T gastric cancer cell, MDA-MB-231 breast cancer cell.
(§2) The above cancer cells were incubated with 3D fibrin gel medium (90-Pa) for 5 days, and the desired tumor-repopulating cells were screened. Subsequently, the culture medium was respectively treated with collagenase and neutral protease II, and the tumor-repopulating cells of B16-F1 melanoma were released, then the obtained repopulating cells were transferred to a freshly prepared medium to be resuspended and maintained at single-cell state. The tumor-repopulating cells of individual tumor were inoculated in 3D fibrin gel medium (90-Pa) for 5 days, with 0.1% DMSO as the negative control group (represented by DMSO group in FIGS. 3-8), the drug-free group as vehicle control group (represented by None group in FIGS. 3-8), and the study was performed by beginning administrating on the day 0 and the 3rd day respectively, and the colony tumor volume was measured and calculated.
as §2, with “The above human tumor cells were” for “The above cancer cells were”, “cells of B16-F1 melanoma were inoculated” for “cells of individual tumor were inoculated”, “group in FIG. 9), the drug-free” for “group in FIGS. 3-8), the drug-free”, “measured and calculated, beginning administrating from the 3rd day at a concentration of 0.1 μM, 1.0 μM, and 10 μM respectively, the colony tumor volume was measured and calculated.” for “measured and calculated.”

[3] = system: tumor-repopulating cells of MDA-MB-231 breast cancer; assay: as above; assay type: cell-based, human; conditions: MDA-MB-231 TRCs; for volume of colony tumor relative to None group: 10 μM
Protocol: as §1, §2
as §2, with “The above human tumor cells were” for “The above cancer cells were”, “cells of B16-F1 melanoma were inoculated” for “cells of individual tumor were inoculated”, “group in FIG. 9), the drug-free” for “group in FIGS. 3-8), the drug-free”, “measured and calculated, beginning administrating from the 3rd day at a concentration of 0.1 μM, 1.0 μM, and 10 μM respectively, the colony tumor volume was measured and calculated.” for “measured and calculated.”

[4] = system: 3T3 mouse embryonic fibroblast cells; assay: In vitro toxicity on normal cells (proliferation, apoptosis); assay type: cell-based; conditions: 10 μM
Protocol: (§3) The 3T3 mouse embryonic fibroblast cells and B16-F1 melanoma cells were used as the model to study in vitro toxicity of WYC-209 and WYC-331 respectively. The effect of compound WYC-209 and WYC-331 on the proliferation of 3T3 mouse embryonic fibroblast cells and B16-F1 melanoma cells were studied at a concentration of 10 μM.

B16-F1 melanoma cells = assay: In vitro effect on B16-F1 melanoma cells (proliferation, apoptosis) in the toxicity study; assay type: cell-based; conditions: 10 μM
Protocol: as §3

[5] = system: tumor-repopulating cells of A549 lung cancer; assay: Inhibition of proliferation of tumor-repopulating cells, colony tumor volume in 3D fibrin gel; assay type: cell-based, human; conditions: A549 TRCs
Protocol: as §1, §2

[6] = system: tumor-repopulating cells of Hs-746T gastric cancer; assay: as above; assay type: cell-based, human; conditions: Hs-746T TRCs
Protocol: as §1, §2

[7] = system: tumor-repopulating cells of MCF-7 breast cancer; assay: as above; assay type: cell-based, human; conditions: MCF-7 TRCs
Protocol: as §1, §2

[8] = system: tumor-repopulating cells of MDA-MB-435S melanoma; assay: as above; assay type: cell-based, human; conditions: MDA-MB-435S TRCs
Protocol: as §1, §2

[9] = system: B16-F1 metastatic melanoma in the lung; assay: B16-F1 metastatic melanoma in the lung model, 30,000 tumor-repopulating cells via tail vein (WYC-209); assay type: in vivo, mice (C57BL/6); conditions: for mice that suffered pulmonary metastatic melanoma: 30th day, 8 mice
Protocol: This experiment was performed to study whether WYC-209 could inhibit the metastasis of melanoma to the lung thus prevent secondary tumorigenesis. The B16-F1 cells were incubated with 3D fibrin gel medium (90-Pa) for 5 days, and the desired tumor-repopulating cells were screened. Subsequently, the culture medium was respectively treated with collagenase and neutral protease II, and the tumor-repopulating cells were released, then the obtained repopulating cells were transferred to a freshly prepared medium to be re-suspended and maintained at single-cell state. Then 24 immunocompetent mice (C57BL/6, female, 6-8 weeks) were randomly selected and divided into three groups which were respectively low-dose group (1.0 μM), high-dose group (10 μM) and DMSO negative control group, with 8 mice per group. Subsequently, the mice were injected via the tail vein with 30,000 tumor-repopulating cells of melanoma to establish a B16-F1 metastatic melanoma model in the mouse. Subsequently, Mice were administered via tail vein injection based on the body weight and the blood volume of the mice. From the 5th day on, mice in the treatment group were administrated with WYC-209 once every 2 days at a blood concentration of 1.0 μM and 10 μM; mice in the DMSO group was administered with 0.1% DMSO in a same route of administration as negative control. At this time, there was no significant difference in the body weight between the groups, the mice were fed normally, observing the survival of the mice.

[10] = system: subcutaneous implantation tumor of B16-F1 melanoma; assay: Subcutaneous implantation model of B16-F1 melanoma in immunocompetent mice; assay type: in vivo, mice (C57BL/6)
Protocol: A subcutaneous implantation model of B16-F1 melanoma in immunocompetent mice (C57BL/6, female, 6-8 weeks) was established to study the inhibitory activity of compound WYC-103 on the tumor in situ. Firstly, B16-F1 cells were incubated within 3D fibrin gel (90-Pa in gel stiffness) that was immersed in culture medium for 5 days, and the desired tumor-repopulating cells were screened. Subsequently, the culture medium was respectively treated with collagenase and neutral protease II, and the tumor-repopulating cells of B16-F1 melanoma were released, then the obtained repopulating cells were transferred to a freshly prepared medium to be re-suspended and maintained at single-cell state.
Six immunocompetent mice were randomly divided into two groups which were respectively the treatment group and the DMSO negative control group. Mice were subcutaneously injected with 30,000 tumor-repopulating cells of melanoma to establish a subcutaneous implantation model of melanoma. Subsequently, Mice were administered via tail vein injection based on the body weight and the blood volume of the mice. From day 0, mice in the treatment group were administrated with WYC-103 once every 2 days at a blood concentration of 10 μM and fed normally, observing the survival of the mice. […] According to the statistical analysis, the tumor volume in the treatment group was only 50% of the control group (FIG. 12).
This experiment was repeated in order to further confirm the inhibitory activity of WYC-103 on subcutaneous implantation tumor of B16-F1 melanoma. In the present experiment, 18 immunocompetent mice (C57BL/6, female, 6-8 weeks) were randomly divided into three groups which were respectively the treatment group, the positive control group (BMS-453 was used as the positive drug) and the DMSO negative control group. Subsequently, Mice were administered via tail vein injection based on the body weight and the blood volume of the mice. From day 0, mice in the treatment group were administrated with WYC-103 once every 2 days at a blood concentration of 10 μM; mice in the positive control group were administered with BMS-453 (WYC-114) as the positive drug in the same route of administration; mice in the negative control group was administered with 0.1% DMSO in a same route of administration.

[11] = system: metastatic melanoma in the lung; assay: Metastatic melanoma in the lung model, 3000 tumor-repopulating cells via tail vein (WYC-103); assay type: in vivo; conditions: blood concentration 10 μM
From the text: A metastatic melanoma model in the mouse was established to study whether WYC-103 could inhibit metastatic melanoma in the lung thus prevent secondary tumorigenesis. Firstly, 12 normally immunocompetent mice (C57BL/6, female, 6-8 weeks) were randomly selected and injected via the tail vein with 3000 tumor-repopulating cells of melanoma to establish a metastatic melanoma model in the mouse. The model mice were randomly divided into two groups which were respectively the treatment group and the negative control group. The mice were administered with WYC-103 (the treatment group) and DMSO (the negative control group) via tail vein injection once every 2 days at a blood concentration of 10 μM based on the body weight and the blood volume of the mice.

[12] = Mus musculus, B16-F1, 120 h, 10 μM, incubated 5 days, colony tumor size, read-out: Inhibition rate on TRCs of B16-F1 melanoma at a concentration of 10 μM (%)
[13] = Mus musculus, B16-F1, dose-response curve
[14] = Mus musculus, B16-F1, 10 μM (Table 3), read-out: Inhibition rate on TRCs of B16-F1 melanoma at a concentration of 10 μM/%

CCOC(=O)c1cnc(C#Cc2ccc3c(c2)C(C)(C)CCC3(C)C)nc1 [WYC-331, ethyl 2-((5,5,8,8-tetramethyl-5,6,7,8-tetrahydronaphth-2-yl)ethynyl)pyrimidin-5-carboxylate]
inhibition at 10 µM [1, 12]: 96%
IC50 [1, 13]: 0.017 µM
inhibition at 10 µM [1, 14]: 96%
volume of colony tumor relative to None group [2]: 10-15%
growth trend of colony tumor [3]: reverse the growth trend of colony tumor
volume of colony tumor relative to None group [3]: 10-15%
effect on proliferation of 3T3 mouse embryonic fibroblast cells [4]: no effect on the growth of 3T3 cell clones
induction of apoptosis of 3T3 mouse embryonic fibroblast cells [4]: did not exhibit significant apoptosis-inducing effect; also recorded: could not induce apoptosis
effect on proliferation of B16-F1 melanoma cells (B16-F1 melanoma cells): strongly inhibited the proliferation
induction of apoptosis of B16-F1 melanoma cells (B16-F1 melanoma cells): did not exhibit significant apoptosis-inducing effect

CCOC(=O)c1cnc(C#Cc2ccc3c(c2)C(C)(C)CC[S+]3[O-])nc1 (stereo not shown) [WYC-209, ethyl 2-((4,4-dimethyl-1-oxothiochroman-6-yl)ethynyl)pyrimidin-5-carboxylate]
inhibition at 10 µM [1, 12]: 98.8%
IC50 [1, 13]: 0.25 µM
inhibition at 10 µM [1, 14]: 98.8%
IC50 ([1]; dose-response curve): 0.19 µM
volume of tumor colony relative to None group ([5]; 1.0 μM): 25-30%
volume of colony tumor relative to None group ([5]; 10 μM): less than 10%
growth trend of colony tumor [6]: reverse the growth trend of colony tumor
volume of tumor colony relative to None group ([6]; 1.0 μM): 25-30%
volume of colony tumor relative to None group ([6]; 10 μM): less than 10%
volume of tumor colony relative to None group ([7]; 1.0 μM): 25-30%
volume of colony tumor relative to None group ([7]; 10 μM): less than 10%
volume of tumor colony relative to None group ([8]; 1.0 μM): 25-30%
volume of colony tumor relative to None group ([8]; 10 μM): less than 10%
volume of tumor colony relative to None group ([2]; 1.0 μM): 25-30%
volume of colony tumor relative to None group [2]: less than 10%
volume of tumor colony relative to None group ([3]; 1.0 μM): 25-30%
volume of colony tumor relative to None group [3]: less than 10%
effect on proliferation of 3T3 mouse embryonic fibroblast cells [4]: did not affect the proliferation; also recorded: no effect on the growth of 3T3 cell clones
induction of apoptosis of 3T3 mouse embryonic fibroblast cells [4]: did not induce apoptosis; also recorded: could not induce apoptosis
effect on proliferation of B16-F1 melanoma cells (B16-F1 melanoma cells): significantly block the growth
induction of apoptosis of B16-F1 melanoma cells (B16-F1 melanoma cells): significant cell apoptosis
abnormalities in the liver and stomach ([9]; 1.0 μM treatment group): no abnormalities found in the liver and stomach
abnormalities in the liver and stomach ([9]; 10 μM treatment group): no abnormalities found in the liver and stomach
mice that suffered pulmonary metastatic melanoma ([9]; 1.0 μM treatment group): 50%
mice that suffered pulmonary metastatic melanoma ([9]; 10 μM treatment group): 12.5%
efficiency of preventing metastasis of repopulating cells of melanoma to the lung ([9]; blood concentration 1.0 μM): 50%
efficiency of preventing metastasis of repopulating cells of melanoma to the lung ([9]; blood concentration 10 μM): 87.5% and 87%
toxic side effects ([9]; whole experiment): no obvious toxic side effects

CCOC(=O)c1ccc(C#Cc2ccc3c(c2)C(C)(C)CCS3)cc1O [WYC-103, ethyl 4-((4,4-dimethylthiochroman-6-yl)ethynyl)-2-hydroxybenzoate]
inhibition at 10 µM [1, 12]: 86.8%
inhibition at 10 µM [1, 14]: 86.8%
tumor volume in the treatment group relative to the control group ([10]; first experiment, after 19 days, tail vein injection every 2 days, blood concentration 10 μM): 50%
body weight of the mice ([10]; mouse, in vivo): stable and balanced
dissection of peritoneal/abdominal cavity ([10]; mouse, in vivo): No abnormalities
toxic side effects ([10]; mouse, in vivo): no obvious toxic side effects
tumor volume in the treatment group relative to the negative control group ([10]; repeated experiment, 26th day, tail vein injection every 2 days, blood concentration 10 μM): 50%
mice died ([10]; repeated experiment, on the 26th day): 50%
average lung weight relative to the negative control group [11]: ⅓
toxic side effects ([11]; whole experiment): no obvious toxic side effects
efficiency of preventing the occurrence of metastatic melanoma in the lung ([11]; tail vein injection every 2 days): 100%
